Reference: ChEMBL document CHEMBL2073877, “Functional characterization of the basolateral rat liver organic anion transporting polypeptide” (Hepatology, 1994)

Key:
[1] = biological target: T1, Solute carrier organic anion transporter family member 1A1 (Rattus norvegicus, UniProt P46720); test: TP_TRANSPORTER: inhibition of BSP uptake (BSP: 2 uM, DIDS: 100 uM) in Xenopus laevis oocytes; format: functional, cell-based, Oocyte; settings: probe BSP
T1 sequence (P46720 whole entry): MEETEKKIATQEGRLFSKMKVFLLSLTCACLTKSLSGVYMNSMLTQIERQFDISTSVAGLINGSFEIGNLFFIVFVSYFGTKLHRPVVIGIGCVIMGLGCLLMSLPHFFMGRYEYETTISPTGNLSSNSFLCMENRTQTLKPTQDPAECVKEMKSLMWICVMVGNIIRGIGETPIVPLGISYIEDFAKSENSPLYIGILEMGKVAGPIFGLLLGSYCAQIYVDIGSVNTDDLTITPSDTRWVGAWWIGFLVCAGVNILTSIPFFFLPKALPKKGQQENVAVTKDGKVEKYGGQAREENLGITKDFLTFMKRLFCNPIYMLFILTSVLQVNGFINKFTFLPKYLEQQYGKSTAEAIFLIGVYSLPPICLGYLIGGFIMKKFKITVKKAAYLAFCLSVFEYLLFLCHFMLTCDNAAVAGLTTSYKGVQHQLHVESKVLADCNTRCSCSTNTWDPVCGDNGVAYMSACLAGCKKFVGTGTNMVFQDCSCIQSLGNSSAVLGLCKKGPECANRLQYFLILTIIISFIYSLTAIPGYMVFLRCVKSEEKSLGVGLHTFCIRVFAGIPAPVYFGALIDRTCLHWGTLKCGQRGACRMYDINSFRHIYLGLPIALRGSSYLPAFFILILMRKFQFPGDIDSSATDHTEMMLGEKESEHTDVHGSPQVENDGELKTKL

[2] = biological target: T1, Solute carrier organic anion transporter family member 1A1; test: TP_TRANSPORTER: inhibition of BSP uptake (BSP: 1 uM, Bilirubin: 10 uM) in Xenopus laevis oocytes; format: functional, cell-based, Oocyte; settings: probe BSP
[3] = biological target: T1, Solute carrier organic anion transporter family member 1A1; test: TP_TRANSPORTER: inhibition of BSP uptake (BSP: 2 uM, CDCA: 100 uM) in Xenopus laevis oocytes; format: functional, cell-based; settings: oocyte
[4] = biological target: T1, Solute carrier organic anion transporter family member 1A1; test: TP_TRANSPORTER: inhibition of Taurocholate uptake (Taurochorate: 20 uM, CDCA: 200 uM) in Xenopus laevis oocytes; format: functional, cell-based; settings: oocyte
[5] = biological target: T1, Solute carrier organic anion transporter family member 1A1; test: TP_TRANSPORTER: inhibition of BSP uptake (BSP: 2 uM, DCA: 100 uM) in Xenopus laevis oocytes; format: functional, cell-based; settings: oocyte
[6] = biological target: T1, Solute carrier organic anion transporter family member 1A1; test: TP_TRANSPORTER: inhibition of Taurocholate uptake (Taurochorate: 20 uM, DCA: 200 uM) in Xenopus laevis oocytes; format: functional, cell-based; settings: oocyte
[7] = biological target: T1, Solute carrier organic anion transporter family member 1A1; test: TP_TRANSPORTER: inhibition of BSP uptake (BSP: 2 uM, GCDCA: 100 uM) in Xenopus laevis oocytes; format: functional, cell-based; settings: oocyte
[8] = biological target: T1, Solute carrier organic anion transporter family member 1A1; test: TP_TRANSPORTER: inhibition of Taurocholate uptake (Taurochorate: 20 uM, GCDCA: 200 uM) in Xenopus laevis oocytes; format: functional, cell-based; settings: oocyte
[9] = biological target: T1, Solute carrier organic anion transporter family member 1A1; test: TP_TRANSPORTER: inhibition of BSP uptake (BSP: 2 uM, GC: 100 uM) in Xenopus laevis oocytes; format: functional, cell-based; settings: oocyte
[10] = biological target: T1, Solute carrier organic anion transporter family member 1A1; test: TP_TRANSPORTER: inhibition of Taurocholate uptake (Taurochorate: 20 uM, GC: 200 uM) in Xenopus laevis oocytes; format: functional, cell-based; settings: oocyte
[11] = biological target: T1, Solute carrier organic anion transporter family member 1A1; test: TP_TRANSPORTER: inhibition of Taurocholate uptake (Taurochorate: 20 uM, GDCA: 200 uM) in Xenopus laevis oocytes; format: functional, cell-based; settings: oocyte
[12] = biological target: T1, Solute carrier organic anion transporter family member 1A1; test: TP_TRANSPORTER: inhibition of BSP uptake (BSP: 2 uM, GDCA: 100 uM) in Xenopus laevis oocytes; format: functional, cell-based; settings: oocyte
[13] = biological target: T1, Solute carrier organic anion transporter family member 1A1; test: TP_TRANSPORTER: inhibition of BSP uptake (BSP: 2 uM, ICG: 100 uM) in Xenopus laevis oocytes; format: functional, cell-based, Oocyte; settings: probe BSP, read-out: Activity
[14] = biological target: T1, Solute carrier organic anion transporter family member 1A1; test: TP_TRANSPORTER: inhibition of BSP uptake (BSP: 2 uM, Probenecid: 1000 uM) in Xenopus laevis oocytes; format: functional, cell-based, Oocyte; settings: probe BSP
[15] = biological target: T1, Solute carrier organic anion transporter family member 1A1; test: TP_TRANSPORTER: inhibition of Taurocholate uptake (Taurochorate: 20 uM, TCDC: 200 uM) in Xenopus laevis oocytes; format: functional, cell-based; settings: oocyte
[16] = biological target: T1, Solute carrier organic anion transporter family member 1A1; test: TP_TRANSPORTER: inhibition of BSP uptake (BSP: 2 uM, TCDC: 100 uM) in Xenopus laevis oocytes; format: functional, cell-based; settings: oocyte
[17] = biological target: T1, Solute carrier organic anion transporter family member 1A1; test: TP_TRANSPORTER: inhibition of BSP uptake (BSP: 2 uM, TDCA: 100 uM) in Xenopus laevis oocytes; format: functional, cell-based; settings: oocyte
[18] = biological target: T1, Solute carrier organic anion transporter family member 1A1; test: TP_TRANSPORTER: inhibition of Taurocholate uptake (Taurochorate: 20 uM, TDCA: 200 uM) in Xenopus laevis oocytes; format: functional, cell-based; settings: oocyte
[19] = biological target: T1, Solute carrier organic anion transporter family member 1A1; test: TP_TRANSPORTER: inhibition of Taurocholate uptake (Taurochorate: 20 uM, UDCA: 200 uM) in Xenopus laevis oocytes; format: functional, cell-based; settings: oocyte
[20] = biological target: T1, Solute carrier organic anion transporter family member 1A1; test: TP_TRANSPORTER: inhibition of BSP uptake (BSP: 2 uM, UDCA: 100 uM) in Xenopus laevis oocytes; format: functional, cell-based; settings: oocyte

## O=S(=O)(O)c1cc(N=C=S)ccc1/C=C/c1ccc(NC=S)cc1S(=O)(=O)O
[1]
  inhibition at 100 µM: 52%

## C=CC1=C(C)/C(=C/c2[nH]c(Cc3[nH]c(/C=C4\NC(=O)C(C)=C4C=C)c(C)c3CCC(=O)O)c(CCC(=O)O)c2C)NC1=O [BILIRUBIN]
[2]
  inhibition at 10 µM: 43%

## C[C@H](CCC(=O)O)[C@H]1CC[C@H]2[C@@H]3[C@H](O)C[C@@H]4C[C@H](O)CC[C@]4(C)[C@H]3CC[C@]12C [CHENODIOL]
[3]
  Activity: inhibitor [(at a rough estimate) 15 % of control]
[4]
  Activity: inhibitor [(at a rough estimate) 5 % of control]

## C[C@H](CCC(=O)O)[C@H]1CC[C@H]2[C@@H]3CC[C@@H]4C[C@H](O)CC[C@]4(C)[C@H]3C[C@H](O)[C@]12C [DEOXYCHOLIC ACID]
[5]
  Activity: inhibitor [(at a rough estimate) 15 % of control]
[6]
  Activity: inhibitor [(at a rough estimate) 5 % of control]

## C[C@H](CCC(=O)NCC(=O)O)[C@H]1CC[C@H]2[C@@H]3[C@H](O)C[C@@H]4C[C@H](O)CC[C@]4(C)[C@H]3CC[C@]12C [GLYCOCHENODEOXYCHOLATE]
[7]
  Activity: inhibitor [(at a rough estimate) 10 % of control]
[8]
  Activity: inhibitor [(at a rough estimate) 5 % of control]

## C[C@H](CCC(=O)NCC(=O)O)[C@H]1CC[C@H]2[C@@H]3[C@H](O)C[C@@H]4C[C@H](O)CC[C@]4(C)[C@H]3C[C@H](O)[C@]12C [GLYCOCHOLIC ACID]
[9]
  Activity: inhibitor [(at a rough estimate) 45 % of control]
[10]
  Activity: inhibitor [(at a rough estimate) 40 % of control]

## C[C@H](CCC(=O)NCC(=O)O)[C@H]1CC[C@H]2[C@@H]3CC[C@@H]4C[C@H](O)CC[C@]4(C)[C@H]3C[C@H](O)[C@]12C [GLYCODEOXYCHOLATE]
[11]
  Activity: inhibitor [(at a rough estimate) 10 % of control]
[12]
  Activity: inhibitor [(at a rough estimate) 15 % of control]

## CC1(C)C(/C=C/C=C/C=C/C=C2\N(CCCCS(=O)(=O)O)c3ccc4ccccc4c3C2(C)C)=[N+](CCCCS(=O)(=O)[O-])c2ccc3ccccc3c21 [INDOCYANINE GREEN]
[13]
  inhibition at 100 µM: 81%

## CCCN(CCC)S(=O)(=O)c1ccc(C(=O)O)cc1 [PROBENECID]
[14]
  inhibition at 1000 µM: 74%

## C[C@H](CCC(=O)NCCS(=O)(=O)O)[C@H]1CC[C@H]2[C@@H]3[C@H](O)C[C@@H]4C[C@H](O)CC[C@]4(C)[C@H]3CC[C@]12C [TAUROCHENODEOXYCHOLATE]
[15]
  Activity: inhibitor [(at a rough estimate) 5 % of control]
[16]
  Activity: inhibitor [(at a rough estimate) 5 % of control]

## C[C@H](CCC(=O)NCCS(=O)(=O)O)[C@H]1CC[C@H]2[C@@H]3CC[C@@H]4C[C@H](O)CC[C@]4(C)[C@H]3C[C@H](O)[C@]12C [TAURODEOXYCHOLIC ACID]
[17]
  Activity: inhibitor [(at a rough estimate) 10 % of control]
[18]
  Activity: inhibitor [(at a rough estimate) 5 % of control]

## C[C@H](CCC(=O)O)[C@H]1CC[C@H]2[C@@H]3[C@@H](O)C[C@@H]4C[C@H](O)CC[C@]4(C)[C@H]3CC[C@]12C [URSODIOL]
[19]
  Activity: inhibitor [(at a rough estimate) 10 % of control]
[20]
  Activity: inhibitor [(at a rough estimate) 15 % of control]
